From patent US8580747B2, “Cyclic natriuretic peptide constructs” (Palatin Technologies, Inc., priority 2006, dated 2013) come the findings set out here.

Structures are written as SMILES. Where two headings read alike, the source gives them in different places. Bridge positions count the residues as written; N and C are the ends. Square brackets hold non-standard residues; d marks the D form. Peptide text beside a SMILES is read from it. * marks the point of attachment. Piperazin2one(3S-Bu,6R-CO) = CCCC[C@@H]1NC[C@H](C(=O)*)NC1=O; X1 = N=C(N)NCCC[C@H]1C(=O)N[C@@H](C(N)=O)CN1*; X3 = CC(C)C[C@@H]1NC[C@H](C(=O)*)NC1=O; dNle = CCCC[C@@H](N)C(=O)O; Nle = CCCC[C@H](N)C(=O)O

For data set [1] the following is noted: rat, in vivo, iv.
Data set [2] addresses T1, NEP (neutral endopeptidase) (Homo sapiens, UniProt P08473).
T1 construct: purchased R&D Systems, Minneapolis, Minn; 1182-ZN
Kind of data set: hNEP resistance assay (digestion by neutral endopeptidase). Type of data set: in vitro ADME. The settings on record: human, isolated enzyme neprilysin, pH 7.4. The procedure:
NEP resistance of various constructs of the invention was evaluated using the following experimental procedure. All constructs were diluted in 0.1 M Tris-HCL buffer (pH 7.4) to 100 μM. 40 μL of diluted constructs were added to each tube and all tubes were kept on ice. 40 μL of diluted NEP, either human recombinant NEP (R&D Systems, Minneapolis, Minn., catalogue #1182-ZN) at 8 ng/μL or mouse NEP (R&D Systems, catalog #1126-ZN) at 2.5 ng/μL, was added to each tube. The tubes were mixed gently and spun. […] At the end of the incubation time, the reaction was stopped by adding 5 μL of 10% TFA. […] The extent to which NEP was active against the constructs was then analyzed by HPLC and/or LC/MS. Data analysis included determining the percent of remaining starting material, i.e., undigested peptide construct, and the percent and sequence of each proteolytic fragment.

T1 sequence (P08473 52-750 limits assumed): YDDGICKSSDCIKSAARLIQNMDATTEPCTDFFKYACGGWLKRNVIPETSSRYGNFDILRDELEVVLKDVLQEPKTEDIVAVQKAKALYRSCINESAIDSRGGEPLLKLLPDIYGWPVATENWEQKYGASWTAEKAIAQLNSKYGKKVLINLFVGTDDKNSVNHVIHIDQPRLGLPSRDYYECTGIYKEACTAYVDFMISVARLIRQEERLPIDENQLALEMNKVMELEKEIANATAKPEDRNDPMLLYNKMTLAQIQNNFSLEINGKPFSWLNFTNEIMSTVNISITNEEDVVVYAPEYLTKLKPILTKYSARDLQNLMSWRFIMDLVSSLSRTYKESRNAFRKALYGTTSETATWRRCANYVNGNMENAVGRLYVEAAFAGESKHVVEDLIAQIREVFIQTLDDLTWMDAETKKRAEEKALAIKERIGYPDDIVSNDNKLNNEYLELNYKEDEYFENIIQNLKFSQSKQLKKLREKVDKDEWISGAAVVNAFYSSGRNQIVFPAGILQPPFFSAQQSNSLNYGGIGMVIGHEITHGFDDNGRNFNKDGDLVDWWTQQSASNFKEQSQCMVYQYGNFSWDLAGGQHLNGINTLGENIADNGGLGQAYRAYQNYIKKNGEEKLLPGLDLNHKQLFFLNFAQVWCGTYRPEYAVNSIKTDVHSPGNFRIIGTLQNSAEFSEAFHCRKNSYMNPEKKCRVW

For `CCCC[C@@H]1NC[C@H](C(=O)N[C@H]2CSSC[C@@H](C(=O)N[C@@H](Cc3ccc(O)cc3)C(=O)N3C[C@H](C(N)=O)NC(=O)[C@@H]3CCCNC(=N)N)NC(=O)[C@H](CO)NC(=O)[C@H]([C@@H](C)CC)NC(=O)[C@H](CCCNC(=N)N)NC(=O)[C@H](CC(=O)O)NC(=O)[C@H](CCCC)NC(=O)[C@H](CCCNC(=N)N)NC(=O)CNC(=O)CNC(=O)[C@H](Cc3ccccc3)NC(=O)[C@@H](Cc3c[nH]cn3)NC2=O)NC1=O` [1-28] ({Piperazin2one(3S-Bu,6R-CO)}-C[dH]FGGR[Nle]DRISCY-X1; disulfide 1-12), in data set [1] (2 mg/kg), the AUC (commonly concentration integrated over time) was 0.351 µM·h; the Vd (commonly the apparent volume that relates the amount in the body to the concentration in plasma or blood) stood at 1.1 L/kg; the clearance – broadly, the rate of elimination divided by the concentration – stood at 51 mL/min/kg; the half-life (commonly the time needed for the level to fall by half in the phase considered) is 24 min.

Turning to `CCCC[C@@H]1NC[C@H](C(=O)N[C@H]2CSSC[C@@H](C(=O)N[C@@H](Cc3ccc(O)cc3)C(=O)N3C[C@H](C(N)=O)NC(=O)[C@@H]3CCCNC(=N)N)NC(=O)[C@H](CO)NC(=O)[C@H]([C@@H](C)CC)NC(=O)[C@H](CCCNC(=N)N)NC(=O)[C@H](C)NC(=O)[C@H](CCCC)NC(=O)[C@H](CCCNC(=N)N)NC(=O)CNC(=O)CNC(=O)[C@H](Cc3ccccc3)NC(=O)[C@H](Cc3c[nH]cn3)NC2=O)NC1=O` [1-35], in data set [1] (2 mg/kg), the area under the curve (AUC) was found to be 0.01 µM·h, the Vd was 57 L/kg, the clearance is 1860 mL/min/kg and the half-life is 24 min.

Regarding `CCCC[C@@H]1NC[C@H](C(=O)N[C@H]2CSSC[C@@H](C(=O)N[C@@H](Cc3ccc(O)cc3)C(=O)N3C[C@H](C(N)=O)NC(=O)[C@@H]3CCCNC(=N)N)NC(=O)[C@H](CO)NC(=O)[C@H]([C@@H](C)CC)NC(=O)[C@H](CCCNC(=N)N)NC(=O)[C@H](CC(=O)O)NC(=O)[C@H](CCCC)NC(=O)[C@H](CCCNC(=N)N)NC(=O)CNC(=O)CNC(=O)[C@@H](Cc3ccccc3)NC(=O)[C@H](Cc3c[nH]cn3)NC2=O)NC1=O` [1-39] ({Piperazin2one(3S-Bu,6R-CO)}-CH[dF]GGR[Nle]DRISCY-X1; disulfide 1-12), in data set [1] (2 mg/kg), the AUC came out at 0.142 µM·h, the Vd turned out to be 2.8 L/kg, the clearance turned out to be 134 mL/min/kg and the half-life was 18 min.

In data set [1] (2 mg/kg), `CCCC[C@@H]1NC[C@H](C(=O)N[C@H]2CSSC[C@@H](C(=O)N[C@@H](Cc3ccc(O)cc3)C(=O)N3C[C@H](C(N)=O)NC(=O)[C@@H]3CCCNC(=N)N)NC(=O)[C@H](CO)NC(=O)[C@H]([C@@H](C)CC)NC(=O)[C@H](CCCNC(=N)N)NC(=O)[C@H](CC(=O)O)NC(=O)[C@H](CCCC)NC(=O)[C@@H](CCCNC(=N)N)NC(=O)CNC(=O)CNC(=O)[C@H](Cc3ccccc3)NC(=O)[C@H](Cc3c[nH]cn3)NC2=O)NC1=O` [1-42] ({Piperazin2one(3S-Bu,6R-CO)}-CHFGG[dR][Nle]DRISCY-X1; disulfide 1-12) gave an AUC of 0.369 µM·h, a Vd of 0.7 L/kg, a clearance of 50 mL/min/kg and a half-life of 18 min.

With `CCCC[C@@H]1NC[C@H](C(=O)N[C@H]2CSSC[C@@H](C(=O)N[C@@H](Cc3ccc(O)cc3)C(=O)N3C[C@H](C(N)=O)NC(=O)[C@@H]3CCCNC(=N)N)NC(=O)[C@H](CO)NC(=O)[C@H]([C@@H](C)CC)NC(=O)[C@H](CCCNC(=N)N)NC(=O)[C@H](CC(=O)O)NC(=O)[C@@H](CCCC)NC(=O)[C@H](CCCNC(=N)N)NC(=O)CNC(=O)CNC(=O)[C@H](Cc3ccccc3)NC(=O)[C@H](Cc3c[nH]cn3)NC2=O)NC1=O` [1-43] ({Piperazin2one(3S-Bu,6R-CO)}-CHFGGR[dNle]DRISCY-X1; disulfide 1-12), in data set [2], the share remaining (in general, what is left of the initial amount, in per cent) at 1 h, 50 µM came out at 97% and the fraction remaining at 2 h, 50 µM came out at 92%. In data set [1], this compound had a clearance of 14 mL/min/kg. Also, in data set [1] (2 mg/kg), the AUC came out at 1.25 µM·h, the Vd was 0.6 L/kg, the clearance was 14 mL/min/kg and the half-life was 42 min.

In data set [2], `CCCC[C@@H]1NC[C@H](C(=O)N[C@H]2CSSC[C@@H](C(=O)N[C@@H](Cc3ccc(O)cc3)C(=O)N3C[C@H](C(N)=O)NC(=O)[C@@H]3CCCNC(=N)N)NC(=O)[C@H](CO)NC(=O)[C@H]([C@@H](C)CC)NC(=O)[C@H](CCCNC(=N)N)NC(=O)[C@@H](CC(=O)O)NC(=O)[C@H](CCCC)NC(=O)[C@H](CCCNC(=N)N)NC(=O)CNC(=O)CNC(=O)[C@H](Cc3ccccc3)NC(=O)[C@H](Cc3c[nH]cn3)NC2=O)NC1=O` [1-44] ({Piperazin2one(3S-Bu,6R-CO)}-CHFGGR[Nle][dD]RISCY-X1; disulfide 1-12) displayed a fraction remaining at 1 h, 50 µM of 93% and an amount remaining at 2 h, 50 µM of 86%. In data set [1], the clearance was 15 mL/min/kg. In data set [1] (2 mg/kg), this compound had an AUC of 1.54 µM·h, a Vd of 0.4 L/kg, a clearance of 15 mL/min/kg and a half-life of 30 min.

For `CCCC[C@@H]1NC[C@H](C(=O)N[C@H]2CSSC[C@@H](C(=O)N[C@@H](Cc3ccc(O)cc3)C(=O)N3C[C@H](C(N)=O)NC(=O)[C@@H]3CCCNC(=N)N)NC(=O)[C@H](CO)NC(=O)[C@H]([C@@H](C)CC)NC(=O)[C@@H](CCCNC(=N)N)NC(=O)[C@H](CC(=O)O)NC(=O)[C@H](CCCC)NC(=O)[C@H](CCCNC(=N)N)NC(=O)CNC(=O)CNC(=O)[C@H](Cc3ccccc3)NC(=O)[C@H](Cc3c[nH]cn3)NC2=O)NC1=O` [1-45] ({Piperazin2one(3S-Bu,6R-CO)}-CHFGGR[Nle]D[dR]ISCY-X1; disulfide 1-12), in data set [1] (2 mg/kg), the AUC came to 0.85 µM·h, the Vd was 0.3 L/kg, the clearance stood at 23 mL/min/kg and the half-life was 18 min.

In the case of `CCCC[C@@H]1NC(=O)[C@H](CCCNC(=N)N)NC(=O)CNC(=O)CNC(=O)[C@H](Cc2ccccc2)NC(=O)[C@H](Cc2c[nH]cn2)NC(=O)[C@@H](NC(=O)[C@H]2CN[C@@H](CC(C)C)C(=O)N2)CSSC[C@@H](C(=O)N[C@@H](Cc2ccc(O)cc2)C(=O)N2C[C@H](C(N)=O)NC(=O)[C@@H]2CCCNC(=N)N)NC(=O)[C@H](CO)NC(=O)[C@H]([C@@H](C)CC)NC(=O)[C@H](CCCNC(=N)N)NC(=O)[C@H](CC(=O)O)NC1=O` [1-51] (X3-CHFGGR[Nle]DRISCY-X1; disulfide 1-12), in data set [1] (2 mg/kg), the AUC came out at 0.19 µM·h, the Vd was found to be 1 L/kg, the clearance was 94 mL/min/kg and the half-life was 12 min.

Turning to `CCCC[C@@H]1NC[C@H](C(=O)N[C@H]2CSSC[C@@H](C(=O)N[C@@H](Cc3ccc(O)cc3)C(=O)N3C[C@H](C(N)=O)NC(=O)[C@@H]3CCCNC(=N)N)NC(=O)[C@H](CO)NC(=O)[C@H]([C@@H](C)CC)NC(=O)[C@H](CCCNC(=N)N)NC(=O)[C@H](CC(=O)O)NC(=O)[C@H](CCCC)NC(=O)[C@H](CCCNC(=N)N)NC(=O)CNC(=O)[C@@H](C)NC(=O)[C@H](Cc3ccccc3)NC(=O)[C@H](Cc3c[nH]cn3)NC2=O)NC1=O` [1-68], in data set [1] (2 mg/kg), the AUC worked out at 0.478 µM·h, the Vd is 0.5 L/kg, the clearance amounted to 40 mL/min/kg and the half-life is 18 min.

In data set [1] (2 mg/kg), `CCCC[C@@H]1NC[C@H](C(=O)N[C@H]2CSSC[C@@H](C(=O)N[C@@H](Cc3ccc(O)cc3)C(=O)N3C[C@H](C(N)=O)NC(=O)[C@@H]3CCCNC(=N)N)NC(=O)[C@H](C)NC(=O)[C@H]([C@@H](C)CC)NC(=O)[C@H](CCCNC(=N)N)NC(=O)[C@H](CC(=O)O)NC(=O)[C@H](CCCC)NC(=O)[C@H](CCCNC(=N)N)NC(=O)CNC(=O)CNC(=O)[C@H](Cc3ccccc3)NC(=O)[C@H](C)NC2=O)NC1=O` [1-69] ({Piperazin2one(3S-Bu,6R-CO)}-CAFGGR[Nle]DRIACY-X1; disulfide 1-12) gave an AUC of 0.113 µM·h, a Vd of 0.8 L/kg, a clearance of 168 mL/min/kg and a half-life of 6 min.
